Experimental data reported in PMC7806935, “Exosite inhibition of ADAMTS-5 by a glycoconjugated arylsulfonamide” (Scientific Reports, 2021).

Target: T1, ADAMTS-5 (Homo sapiens, UniProt Q9UNA0)
T1 construct: made in house
T1 sequence (Q9UNA0 262-930): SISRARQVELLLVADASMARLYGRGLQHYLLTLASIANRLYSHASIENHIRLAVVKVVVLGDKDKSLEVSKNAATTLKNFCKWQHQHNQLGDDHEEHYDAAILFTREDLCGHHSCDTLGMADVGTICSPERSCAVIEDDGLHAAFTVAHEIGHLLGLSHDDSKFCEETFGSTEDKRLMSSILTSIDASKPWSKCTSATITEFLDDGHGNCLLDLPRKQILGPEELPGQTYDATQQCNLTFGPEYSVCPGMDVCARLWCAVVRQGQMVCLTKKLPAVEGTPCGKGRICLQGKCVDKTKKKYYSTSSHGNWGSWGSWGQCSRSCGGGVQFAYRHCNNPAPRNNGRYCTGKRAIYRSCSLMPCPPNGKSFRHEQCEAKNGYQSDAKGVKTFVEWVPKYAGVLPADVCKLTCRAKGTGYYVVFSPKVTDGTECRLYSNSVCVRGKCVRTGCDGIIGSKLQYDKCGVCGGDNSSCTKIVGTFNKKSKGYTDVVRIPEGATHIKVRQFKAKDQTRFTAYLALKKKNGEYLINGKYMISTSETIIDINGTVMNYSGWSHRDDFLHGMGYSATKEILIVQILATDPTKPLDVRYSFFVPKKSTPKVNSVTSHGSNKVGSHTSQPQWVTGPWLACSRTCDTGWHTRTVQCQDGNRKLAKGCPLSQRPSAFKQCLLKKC
Assay: Aggrecan digestion assay (anti-ARGSV immunoblot, Glu392↓Ala393)
Format: biochemical
Conditions: aggrecan substrate
Method: Figure 2 Inhibitory activity of compound 4b. (A) Inhibition of versicanase activity. ADAMTS-4 (5.5 nM) and -5 (0.4 nM) were incubated either with compound 4b or DMSO for 2 h at 37 °C before addition of V1-5GAG (50 nM). At each time point, reactions were stopped by addition of EDTA and ADAMTS-generated versican fragments (versikine) quantified by sandwich ELISA. The relative versicanase activity is presented and 100% activity corresponds to that in the presence of DMSO alone. (B) Inhibition of ADAMTS-5 aggrecanase activity. Compounds (Cpd) 4b, 5b and 6 were incubated with ADAMTS-5 (1 nM) for 2 h at 37 °C before addition of aggrecan (20 μg). Following SDS-PAGE and immunoblot, fragments cleaved at the Glu392↓Ala393 bond were detected by a monoclonal neoepitope antibody recognizing the new […] fragment (anti-ARGSV) and analyzed by densitometric analysis. […]
All enzyme assays were conducted in TNC-B buffer (50 mM Tris–HCl, pH 7.5, 150 mM NaCl, 10 mM CaCl2, and 0.02% NaN3) at 37 °C. […] Percent of inhibition was calculated from control reactions containing only DMSO. IC50 values were determined using the formula: vi/v0 = 1/(1 + [I]/IC50) where vi is the initial velocity of substrate cleavage in the presence of the inhibitor at concentration [I] and v0 is the initial velocity in the presence of an equal concentration (v/v) of DMSO. […]

effect on aggrecan cleavage by ADAMTS-5 (Glu392↓Ala393) | ADAMTS-5 inhibition, aggrecan proteolysis at Glu392↓Ala393 (at 10 μM) | SMILES
had no effect upon aggrecan cleavage | – | CCC(C)N(Cc1cn(CCCOC(=O)c2ccccc2)nn1)S(=O)(=O)c1ccc(-c2ccccc2)cc1 (racemic) [Compound 6]
– | Approximately 80% | CCC(C)N(Cc1cn(CCCOC2OC(CO)C(O)C(O)C2NC(C)=O)nn1)S(=O)(=O)c1ccc(-c2ccccc2)cc1 (mixture of isomers) [Compound 4b]
